From US11724992B2 (Novartis AG, priority 2017, dated 2023)
pIC50: −log10 of the molar value. Where two headings read alike, the source gives them in different places.

Tested on: IL-1β production in PMA-differentiated THP-1 cells
Experiment: IL-1β production in PMA-differentiated THP-1 cells stimulated with gramicidin (hTHP-1 assay, 2% fetal bovine serum; Procedures 1-3)
Type: cell-based, human
Settings: class symbols, read-out: hTHP-1 IC50 (Average IC50 of compounds in hTHP-1 assay)
Procedure: The following protocol is suitable for testing the activity of the compounds disclosed herein.
Procedure 1: IL-1β Production in PMA-Differentiated THP-1 Cells Stimulated with Gramicidin
THP-1 cells were purchased from the American Type Culture Collection and sub-cultured according to instructions from the supplier. Cells were cultured in complete RPMI 1640 (containing 10% heat inactivated FBS, penicillin (100 units/ml) and streptomycin (100 μg/ml)), and maintained in log phase prior to experimental setup. Prior to the experiment, compounds were dissolved in dimethyl sulfoxide (DMSO) to generate a 30 mM stock. The compound stock was first pre-diluted in DMSO to 3, 0.34, 0.042 and 0.0083 mM intermediate concentrations and subsequently spotted using Echo550 liquid handler into an empty 384-well assay plate to achieve desired final concentration (e.g. 100, 33, 11, 3.7, 1.2, 0.41, 0.14, 0.046, 0.015, 0.0051, 0.0017 μM). DMSO was backfilled in the plate to achieve a final DMSO assay concentration of 0.37%. The plate was then sealed and stored at room temperature until required.
THP-1 cells were treated with PMA (Phorbol 12-myristate 13-acetate) (20 ng/ml) for 16-18 hours. On the day of the experiment the media was removed and adherent cells were detached with trypsin for 5 minutes. Cells were then harvested, washed with complete RPMI 1640, spun down, and resuspended in RPMI 1640 (containing 2% heat inactivated FBS, penicillin (100 units/ml) and streptomycin (100 μg/ml). The cells were plated in the 384-well assay plate containing the spotted compounds at a density of 50,000 cells/well (final assay volume 50 μl). Cells were incubated with compounds for 1 hour and then stimulated with gramicidin (5 μM) (Enzo) for 2 hours. Plates were then centrifuged at 340 g for 5 min. Cell free supernatant (40 μL) was collected using a 96-channel PlateMaster (Gilson) and the production of IL-1β was evaluated by HTRF (cisbio). The plates were incubated for 18 h at 4° C. and read using the preset HTRF program (donor emission at 620 nm, acceptor emission at 668 nm) of the SpectraMax i3x spectrophotometer (Molecular Devices, software SoftMax 6). A vehicle only control and a dose titration of CRID3 (100-0.0017 μM) were run concurrently with each experiment.
Procedure 2: IL-1β Production in PMA-Differentiated THP-1 Cells Stimulated with Gramicidin
THP-1 cells were purchased from the American Type Culture Collection and sub-cultured according to instructions from the supplier. Prior to experiments, cells were cultured in complete RPMI 1640 (containing 10% heat inactivated FBS, penicillin (100 units/ml) and streptomycin (100 μg/ml)), and maintained in log phase prior to experimental setup. Prior to the experiment THP-1 were treated with PMA (Phorbol 12-myristate 13-acetate) (20 ng/ml) for 16-18 hours. Compounds were dissolved in dimethyl sulfoxide (DMSO) to generate a 30 mM stock. On the day of the experiment the media was removed and adherent cells were detached with trypsin for 5 minutes. Cells were then harvested, washed with complete RPMI 1640, spun down, resuspended in RPMI 1640 (containing 2% heat inactivated FBS, penicillin (100 units/ml) and streptomycin (100 μg/ml). The cells were plated in a 384-well plate at a density of 50,000 cells/well (final assay volume 50 μl). Compounds were first dissolved in assay medium to obtain a 5× top concentration of 500 μM. 10 step dilutions (1:3) were then undertaken in assay medium containing 1.67% DMSO. 5× compound solutions were added to the culture medium to achieve desired final concentration (e.g. 100, 33, 11, 3.7, 1.2, 0.41, 0.14, 0.046, 0.015, 0.0051, […]). Final DMSO concentration was at 0.37%. Cells were incubated with compounds for 1 hour and then stimulated with gramicidin (5 μM) (Enzo) for 2 hours. Plates were then centrifuged at 340 g for 5 min. Cell free supernatant (40 μL) was collected using a 96-channel PlateMaster (Gilson) and the production of IL-1β was evaluated by HTRF (cisbio). […]

[1] = hTHP-1 assay containing 2% fetal bovine serum
[2] = Homo sapiens, THP-1, hTHP-1 assay containing 2% fetal bovine serum

Q: `CC(C)c1cc(C#N)cc(C(C)C)c1NC(=O)N=S(N)(=O)c1sc(C(C)(C)O)cc1F` (single isomer, unassigned) [Example 182] was tested. Which pIC50 [1] did it give?
A: 7.40 to 8.10

Q: How did the pIC50 [1] turn out when `CC(C)c1cc(C#N)cc(C(C)C)c1NC(=O)N=S(N)(=O)c1sc(C(C)(C)O)cc1F` (single isomer, unassigned) [Example 183] was run?
A: 6.00 to 6.70

Q: `CC(C)c1cc(C#N)cc(C(C)C)c1NC(=O)N=S(N)(=O)c1cc(C#N)cc(C(C)(C)O)c1` (single isomer, unassigned) [Example 184] was tested. Which pIC50 [1] did it give?
A: 6.00 to 6.70

Q: With `CC(C)c1cc(C#N)cc(C(C)C)c1NC(=O)N=S(N)(=O)c1cc(C#N)cc(C(C)(C)O)c1` (single isomer, unassigned) [Example 185] as the compound, how does the pIC50 [1] read?
A: 4.52 to 5.30

Q: How did the pIC50 [1] turn out when `CC(C)c1cc(C#N)cc(C(C)C)c1NC(=O)N=S(N)(=O)c1ccc(C(C)(C)O)s1` (single isomer, unassigned) [Example 186] was run?
A: 6.70 to 7.40

Q: `CC(C)c1cc(C#N)cc(C(C)C)c1NC(=O)N=S(N)(=O)c1ccc(C(C)(C)O)s1` (single isomer, unassigned) [Example 187] was tested. Which pIC50 [1] did it give?
A: 4.52 to 5.30

Q: `CC(C)(O)c1nc(CO)c(S(N)(=O)=NC(=O)Nc2c3c(c(C#N)c4c2CCC4)CCC3)s1` (single isomer, unassigned) [Example 190] was tested. Which pIC50 [1] did it give?
A: 6.00 to 6.70

Q: How did the pIC50 [1] turn out when `CC(C)(O)c1nc(CO)c(S(N)(=O)=NC(=O)Nc2c3c(c(C#N)c4c2CCC4)CCC3)s1` (single isomer, unassigned) [Example 191] was run?
A: 4.52 to 5.30

Q: `CC(C)c1cc(C#N)c(F)c(C(C)C)c1NC(=O)N=S(N)(=O)c1sc(C(C)(C)O)nc1CO` (single isomer, unassigned) [Example 194] was tested. Which pIC50 [1] did it give?
A: 5.30 to 6.00

Q: With `CC(C)c1cc(C#N)c(F)c(C(C)C)c1NC(=O)N=S(N)(=O)c1sc(C(C)(C)O)nc1CO` (single isomer, unassigned) [Example 195] as the compound, how does the pIC50 [1] read?
A: 4.52 to 5.30

Q: How did the pIC50 [1] turn out when `CC(C)(O)c1coc(S(N)(=O)=NC(=O)Nc2c3c(cc4c2CCC4)CCC3)c1` (single isomer, unassigned) [Example 202] was run?
A: 5.30 to 6.00

Q: With `CC(C)(O)c1coc(S(N)(=O)=NC(=O)Nc2c3c(cc4c2CCC4)CCC3)c1` (single isomer, unassigned) [Example 203] as the compound, how does the pIC50 [1] read?
A: > 8.10

Q: How did the pIC50 [1] turn out when `CC(C)(O)c1csc(S(N)(=O)=NC(=O)Nc2c3c(c(F)c4c2CCC4)CCC3)c1` (single isomer, unassigned) [Example 206] was run?
A: 7.40 to 8.10

Q: How did the pIC50 [1] turn out when `CC(C)(O)c1csc(S(N)(=O)=NC(=O)Nc2c3c(c(F)c4c2CCC4)CCC3)c1` (single isomer, unassigned) [Example 207] was run?
A: 6.00 to 6.70

Q: `CC(C)(O)c1ncc([S@](N)(=O)=NC(=O)Nc2c3c(cc4c2CC4)CCC3)s1` (single isomer, unassigned) [Example 224] was tested. Which pIC50 [2] did it give?
A: 7.40 to 8.10

Q: With `CC(C)(O)c1ncc([S@@](N)(=O)=NC(=O)Nc2c3c(cc4c2CC4)CCC3)s1` (single isomer, unassigned) [Example 225] as the compound, how does the pIC50 [2] read?
A: 5.30 to 6.00

Q: With `CC(C)(O)c1cnc(S(N)(=O)=NC(=O)Nc2c3c(cc4c2CCC4)CCC3)s1` (single isomer, unassigned) [Example 296, (R) or (S)-N′-((1,2,3,5,6,7-hexahydro-s-indacen-4-yl)carbamoyl)-5-(2-hydroxypropan-2-yl)thiazole-2-sulfonimidamide] as the compound, how does the pIC50 [1] read?
A: > 8.10

Q: `CC(C)(O)c1cnc(S(N)(=O)=NC(=O)Nc2c3c(cc4c2CCC4)CCC3)s1` (single isomer, unassigned) [Example 297, (S) or (R)-N′-((1,2,3,5,6,7-hexahydro-s-indacen-4-yl)carbamoyl)-5-(2-hydroxypropan-2-yl)thiazole-2-sulfonimidamide] was tested. Which pIC50 [1] did it give?
A: 6.00 to 6.70

Q: With `CC(C)c1ccc(F)c(C(C)C)c1NC(=O)N=S(N)(=O)c1cnc(C(C)(C)O)s1` (single isomer, unassigned) [Example 298, (R) or (S)-N′-((3-fluoro-2,6-diisopropylphenyl)carbamoyl)-2-(2-hydroxypropan-2-yl)thiazole-5-sulfonimidamide] as the compound, how does the pIC50 [1] read?
A: 6.70 to 7.40

Q: `CC(C)c1ccc(F)c(C(C)C)c1NC(=O)N=S(N)(=O)c1cnc(C(C)(C)O)s1` (single isomer, unassigned) [Example 299, (S) or (R)-N′-((3-fluoro-2,6-diisopropylphenyl)carbamoyl)-2-(2-hydroxypropan-2-yl)thiazole-5-sulfonimidamide] was tested. Which pIC50 [1] did it give?
A: 5.30 to 6.00

Q: With `CC(C)c1ccc(C#N)c(C(C)C)c1NC(=O)N=S(N)(=O)c1ccc(C(C)(C)O)s1` (single isomer, unassigned) [Example 300, (R) or (S)-N′-((3-cyano-2,6-diisopropylphenyl)carbamoyl)-5-(2-hydroxypropan-2-yl)thiophene-2-sulfonimidamide] as the compound, how does the pIC50 [1] read?
A: 6.00 to 6.70

Q: With `Cc1oc(S(N)(=O)=NC(=O)Nc2c3c(cc4c2C(C)CC4)CCC3)cc1C(C)(C)O` (single isomer, unassigned) [Example 302, (R,R) or (R,S) or (S,S) or (S,R)-4-(2-hydroxypropan-2-yl)-5-methyl-N′-((3-methyl-1,2,3,5,6,7-hexahydro-s-indacen-4-yl)carbamoyl)furan-2-sulfonimidamide resolved from example 127] as the compound, how does the pIC50 [1] read?
A: 6.00 to 6.70

Q: With `Cc1oc(S(N)(=O)=NC(=O)Nc2c3c(cc4c2C(C)CC4)CCC3)cc1C(C)(C)O` (single isomer, unassigned) [Example 303, (R,S) or (R,R) or (S,R) or (S,S)-4-(2-hydroxypropan-2-yl)-5-methyl-N′-((3-methyl-1,2,3,5,6,7-hexahydro-s-indacen-4-yl)carbamoyl)furan-2-sulfonimidamide resolved from example 127] as the compound, how does the pIC50 [1] read?
A: 7.40 to 8.10

Q: With `Cc1oc(S(N)(=O)=NC(=O)Nc2c3c(cc4c2CCC4C)CCC3)cc1C(C)(C)O` (single isomer, unassigned) [Example 304, (R,R) or (R,S)-4-(2-hydroxypropan-2-yl)-5-methyl-N′-((3-methyl-1,2,3,5,6,7-hexahydro-s-indacen-4-yl)carbamoyl)furan-2-sulfonimidamide; resolved from example 123] as the compound, how does the pIC50 [1] read?
A: 6.70 to 7.40

Q: `Cc1oc(S(N)(=O)=NC(=O)Nc2c3c(cc4c2CCC4C)CCC3)cc1C(C)(C)O` (single isomer, unassigned) [Example 305, (R,S) or (R,R)-4-(2-hydroxypropan-2-yl)-5-methyl-N′-((3-methyl-1,2,3,5,6,7-hexahydro-s-indacen-4-yl)carbamoyl)furan-2-sulfonimidamide; resolved from example 123] was tested. Which pIC50 [2] did it give?
A: 7.40 to 8.10
